{
  "source": "patent US20260374767A1",
  "about": "“FUSED HETEROCYCLIC COMPOUNDS AND USES THEREOF” (Chengdu Zenitar Biomedical Technology Co., Ltd., priority 2022, published 2026)",
  "key": {"[1]": {"tested_on": "MDA-MB-436 cells", "assay": "Anti-proliferative activity assay, BRCA-mutated MDA-MB-436 cells (CCK8)", "format": "cell-based", "conditions": "Homo sapiens, MDA-MB-436, BRCA-mutated, 72 h + 96 h", "excerpt": "(§1) 2. Anti-Proliferative Activity Assay of Cell:"}, "[2]": {"tested_on": "breast cancer MDA-MB-436", "assay": "Challenge experiment on subcutaneous xenograft tumor model of breast cancer MDA-MB-436 (large-volume tumors)", "protocol": "Each group consisted of 5 mice and was administered orally once per day. The body weight of the mice was measured every 2 days, and the length and width of the tumors with a vernier caliper."}, "[3]": {"assay": "Pharmacokinetic evaluation in Balb/c mice", "format": "in vivo", "conditions": "1 mg/kg orally", "protocol": "Pharmacokinetic Evaluation of Compound in Balb/c Mice\n(§2) Experimental purpose: To learn pharmacokinetic profiles of compounds.\nExperimental scheme: The pharmacokinetic profile of the compound was investigated by means of administering it intravenously (1 mg kg^−1) and orally (1 mg kg^−1) to Balb/c mice.\nSample preparation: About 0.2 mg of the compound was dissolved in 10 μL DMSO, then a sodium chloride injection was added to make a 0.1 mg mL^−1 solution of the compound for administration.\nThree mice were administered the compound intravenously (IV) at a dose of 1 mg kg^−1, and the other three were administered the compound orally (PO) at the same dose. […] The plasma concentration of the drug was quantitatively analyzed with the LC-MS/MS method, and pharmacokinetic parameters were calculated, including the time to peak concentration (Cmax), area under the concentration-time curve (AUC(0-t)), half-life (T1/2), clearance (CL), volume of distribution at steady state (Vdss), and bioavailability (F)."}, "[4]": {"tested_on": "SUM14PT", "assay": "In-vivo pharmacodynamic study on subcutaneous xenograft tumor model of breast cancer SUM14PT", "design": "species or system nude mice", "method": "Experimental procedure: In this study, a mice model was established by subcutaneously inoculating SUM14PT tumor cells. Eight groups were divided for the experiment, with 6 mice in each group. The negative control group (Control) received normal saline at 0.2 mL per mice per administration, given orally once per day; the carboplatin control group (Carboplatin, Car) received 20 mg/kg at 0.2 mL per mice per administration, administered via intraperitoneal injection once every 7 days."}, "[5]": {"assay": "Pharmacokinetic evaluation in SD rat", "format": "in vivo", "conditions": "SD rats", "protocol": "Pharmacokinetic Evaluation of Compound in SD Rat\nas §2\nExperimental scheme: The pharmacokinetic profile of the compound was investigated by oral intravenous administration in SD rats.\nExperimental procedure: The compound, a small amount of DMSO and a sodium chloride injection were added to prepare the final solution for administration. The compound was orally administered to 6 male SD rats. […] The supernatant was collected and transferred into a sample vial for assay. Range of standard curve: 10-10,000 ng mL^−1."}, "[6]": {"tested_on": "gastric cancer PDX", "assay": "In-vivo pharmacodynamic study on PDX gastric cancer mice model", "design": "species or system patient-derived tumor in mice", "method": "7. In-Vivo Pharmacodynamic Study of Compound 6 on PDX Gastric Cancer Mice model\nExperimental procedure: Tumor tissues from gastric cancer patients were used to establish a stable passaged tumor-bearing mice model. In this study, tumor fragments from mice that had been stably passaged three times were used for subcutaneous inoculation. Eight groups were divided for the experiment, with 6 mice in each group. The negative control group (Control) received normal saline at 0.2 mL per mice per administration, given orally once per day; the carboplatin control group (Carboplatin, Car) received 20 mg/kg at 0.2 mL per mice per administration, administered via intraperitoneal injection once every 7 days."}, "[7]": {"tested_on": "DLD-1 cells", "assay": "Anti-proliferative activity assay, BRCA wild-type DLD-1 cells (CCK8)", "format": "cell-based", "conditions": "Homo sapiens, 72 h + 96 h", "excerpt": "as §1"}, "[8]": {"tested_on": "breast cancer MDA-MB-436", "assay": "In-vivo pharmacodynamic study on subcutaneous xenograft tumor model of breast cancer MDA-MB-436", "design": "species or system human tumor cells in NOD/SCID mice", "method": "Strain: NOD/SCID; Grade: SPF; Source: Beijing Vitron River Bio-technology Co., Ltd.\nThe cells were washed 3 times with pre-cooled PBS, centrifuged at 300 g for 10 min, collected, re-suspended in PBS, and counted with a blood cell counting chamber, and the cell concentration was adjusted. After cell collection, the cell suspension was pre-cooled on ice. 100 μL of the cell suspension was administered via subcutaneous injection into the dorsal flank of the mice, and the grouped treatment was started when the tumor volume reached 200-300 mm^3.\nAnimal assay: all viable experimental animals scheduled for assay; Assay time: All animals were weighed before the modeling for test grouping. After modeling, the mice were weighed once every 2 days, and the weight change of the mice was recorded in real time. Effective criteria: tumor volume (TV), relative tumor volume (RTV) and relative tumor growth rate of subcutaneously implanted tumor model. […] The calculation formula of tumor volume (TV) was: TV (mm^3)=a×b2×0.5, where a and b were the long diameter and short diameter, respectively.\nThe evaluation index for anti-tumor activity was the relative tumor growth rate T/C (%), and the calculation formula was as follows: […]\nWhere, TRTV is relative tumor volume of the treatment group; CRTV is relative tumor volume of the negative control group. […] The tumor inhibition rate (%) was calculated by the formula below: […]\nAll raw data within the facility were collected manually according to the experimental scheme and the relevant guidelines of the research institution, or gathered by using a data acquisition system. Manually collected data can be transcribed into software such as Excel for analysis and reporting. The data from each group were quantitative, and the experimental data for each group of animals in the tables were expressed as mean±standard deviation (Mean±SD). In the figures, the experimental data ware described as mean±standard error of the mean (Mean±SEM). Statistical analysis, including t-tests and survival analysis, was performed by using the software such as EXCEL and GraphPad Prism.\nAfter 24 days of administration, the tumor-bearing mice were anesthetized and euthanized. The tumor tissues were dissected, weighed, and photographed, and the tumor inhibition rate was calculated."}, "[9]": {"assay": "Body weight in MDA-MB-436 xenograft study", "format": "in vivo, NOD/SCID mice", "conditions": "for Body weight X ± SD, End: 24 days", "method": "Animal assay: all viable experimental animals scheduled for assay; Assay time: All animals were weighed before the modeling for test grouping. After modeling, the mice were weighed once every 2 days, and the weight change of the mice was recorded in real time. Effective criteria: tumor volume (TV), relative tumor volume (RTV) and relative tumor growth rate of subcutaneously implanted tumor model. The long diameter and short diameter of the tumor was measured with vernier calipers every 2 days, and the anti-tumor effects of the tested drug was dynamically observed. The calculation formula of tumor volume (TV) was: TV (mm^3)=a×b2×0.5, where a and b were the long diameter and short diameter, respectively.\nEach group consisted of 6 mice, all of which are administered orally once daily. […] After 24 days of administration, the tumor-bearing mice were anesthetized and euthanized. The tumor tissues were dissected, weighed, and photographed, and the tumor inhibition rate was calculated."}, "[10]": {"conditions": "0.03 mg/kg orally once daily, 24 days"}, "[11]": {"conditions": "0.1 mg/kg orally once daily, 24 days"}, "[12]": {"conditions": "0.3 mg/kg orally once daily, 24 days"}},
  "data": [
    {"smiles": "[2H]C([2H])([2H])C([2H])([2H])c1cc2ncc(CN3CC=C(c4ccc(C(=O)NC)nc4)CC3)cc2[nH]c1=O", "note": "[Compound 6, 1′-((7-(ethyl-d5)-6-oxo-5,6-dihydro-1,5-naphthyridin-3-yl)methyl)-N-methyl-1′,2′,3′,6′-tetrahy dro-[3,4′-bipyridine]-6-carboxamide]", "values": [
      {"measurement": "IC50", "setting": "[1]", "result": 0.6, "unit": "nM"},
      {"measurement": "rate of tumor regression, comparison with compounds 1 and 21", "setting": "[2]; 1 mg/kg orally once per day", "result": "faster rate of tumor regression compared to the compounds 1 and 21"},
      {"measurement": "tumor regression in large-volume tumors", "setting": "[2]; 1 mg/kg orally once per day", "result": "complete regression of tumors"},
      {"measurement": "in-vivo anti-tumor efficacy, comparison with compounds 1 and 21", "setting": "[2]; 1 mg/kg, same dose", "result": "stronger in-vivo anti-tumor efficacy than compounds 1 and 21"},
      {"measurement": "Cmax, comparison with AZD5305 and compounds 1, 2, 3, 15, 21", "setting": "[3]", "result": "superior to that of the reference compound 5305, as well as compounds 1, 2, 3, 15, and 21"},
      {"measurement": "therapeutic efficacy in combination with carboplatin, compared to Olaparib plus carboplatin", "setting": "[4]; 1 mg/kg orally once daily + carboplatin vs Olaparib 100 mg/kg + carboplatin", "result": "better therapeutic efficacy than Olaparib"},
      {"measurement": "anti-tumor efficacy, monotherapy, compared to Olaparib", "setting": "[4]; 0.3 and 1 mg/kg orally once daily vs Olaparib 100 mg/kg orally once daily", "result": "better anti-tumor efficacy compared to Olaparib"},
      {"measurement": "Cmax, comparison with AZD5305, compound 1 and compound 21", "setting": "[5]", "result": "superior to those of the reference compound AZD5305, compound 1 and compound 21"},
      {"measurement": "inhibition of tumor growth in gastric cancer PDX model", "setting": "[6]; 3 mg/kg p.o. combined with carboplatin 20 mg/kg i.p.", "result": "significantly inhibit tumor growth"},
      {"measurement": "inhibitory effect on gastric cancer PDX model", "setting": "[6]; combined with carboplatin (20 mg/kg i.p. once every 7 days), 0.3, 1, 3 mg/kg p.o.", "result": "dose-dependent inhibitory effect"},
      {"measurement": "IC50", "setting": "[7]", "result": "> 10000", "unit": "nM"},
      {"measurement": "Tumor inhibition rate", "setting": "[8]; [10]", "result": 49.77, "unit": "%"},
      {"measurement": "Tumor weight X ± SD", "setting": "[8]; [10]", "result": "1.09 ± 0.29", "unit": "g"},
      {"measurement": "Tumor volume X ± SD, End", "setting": "[8]; [10]", "result": "739.4 ± 308.7", "unit": "mm^3"},
      {"measurement": "Tumor volume X ± SD, Start", "setting": "[8]; 0.03 mg/kg orally once daily", "result": "275.0 ± 68.1", "unit": "mm^3"},
      {"measurement": "Tumor inhibition rate", "setting": "[8]; [11]", "result": 86.73, "unit": "%"},
      {"measurement": "Tumor weight X ± SD", "setting": "[8]; [11]", "result": "0.29 ± 0.09", "unit": "g"},
      {"measurement": "Tumor volume X ± SD, End", "setting": "[8]; [11]", "result": "228.0 ± 75.9", "unit": "mm^3"},
      {"measurement": "Tumor volume X ± SD, Start", "setting": "[8]; 0.1 mg/kg orally once daily", "result": "274.7 ± 73.8", "unit": "mm^3"},
      {"measurement": "tumor inhibition effect, comparison with AZD5305, compound 1 and Olaparib", "setting": "[8]; 0.1 mg/kg vs same dose of AZD5305 and compound 1, vs Olaparib 100 mg/kg", "result": "superior to that of the reference compound AZD5305 and the compound 1 at the same dose, and significantly better than that of the reference drug Olaparib group (100 mg/kg)"},
      {"measurement": "Tumor inhibition rate", "setting": "[8]; [12]", "result": 95.83, "unit": "%"},
      {"measurement": "Tumor weight X ± SD", "setting": "[8]; [12]", "result": "0.09 ± 0.08", "unit": "g"},
      {"measurement": "Tumor volume X ± SD, End", "setting": "[8]; [12]", "result": "71.0 ± 62.5", "unit": "mm^3"},
      {"measurement": "Tumor volume X ± SD, Start", "setting": "[8]; 0.3 mg/kg orally once daily", "result": "281.9 ± 67.4", "unit": "mm^3"},
      {"measurement": "complete tumor regression", "setting": "[8]; 0.3 mg/kg, at the end of treatment", "result": "2/6"},
      {"measurement": "dose dependence among low, medium and high dose groups", "setting": "[8]; 0.03, 0.1, 0.3 mg/kg, P<0.001, P<0.01", "result": "significant dose-dependent differences"},
      {"measurement": "inhibitory effects on tumor growth compared to blank control group", "setting": "[8]; 24 days, all dose groups", "result": "significant inhibitory effects on tumor growth"},
      {"measurement": "Body weight X ± SD, End", "setting": "[9]; 0.03 mg/kg orally once daily", "result": "21.6 ± 0.7", "unit": "g"},
      {"measurement": "Body weight X ± SD, Start", "setting": "[9]; 0.03 mg/kg orally once daily", "result": "22.6 ± 0.7", "unit": "g"},
      {"measurement": "Body weight X ± SD, End", "setting": "[9]; 0.1 mg/kg orally once daily", "result": "21.6 ± 0.7", "unit": "g"},
      {"measurement": "Body weight X ± SD, Start", "setting": "[9]; 0.1 mg/kg orally once daily", "result": "22.3 ± 1.0", "unit": "g"},
      {"measurement": "Body weight X ± SD, End", "setting": "[9]; 0.3 mg/kg orally once daily", "result": "22.0 ± 0.9", "unit": "g"},
      {"measurement": "Body weight X ± SD, Start", "setting": "[9]; 0.3 mg/kg orally once daily", "result": "22.3 ± 0.8", "unit": "g"}
    ]}
  ]
}
